Test results reported in ChEMBL document CHEMBL1150930, “Metabolism of rosmarinic acid in rats” (J Nat Prod, 1998).

What was measured:
Design in all cases: dose 200 mg/kg, route oral
[1] = system: Rattus norvegicus; assay: Metabolic stability in Sprague-Dawley rat assessed as urinary excretion of trans-m-coumaric acid level at 200 mg/kg, po after 0 to 48 hrs by HPLC; format: ADME, organism-based, Urine; conditions: in vivo
[2] = system: Rattus norvegicus; assay: Metabolic stability in Sprague-Dawley rat assessed as urinary excretion of total metabolites at 200 mg/kg, po after 0 to 24 hrs by HPLC; format: ADME, organism-based, Urine; conditions: in vivo
[3] = system: Rattus norvegicus; assay: Metabolic stability in Sprague-Dawley rat assessed as urinary excretion of trans-m-coumaric acid 3-O-sulfate level at 200 mg/kg, po after 0 to 72 hrs by HPLC; format: ADME, organism-based, Urine; conditions: in vivo
[4] = system: Rattus norvegicus; assay: Metabolic stability in Sprague-Dawley rat assessed as urinary excretion of m-hydroxyphenyl-propionic acid level at 200 mg/kg, po after 0 to 72 hrs by HPLC; format: ADME, organism-based, Urine; conditions: in vivo
[5] = system: Rattus norvegicus; assay: Metabolic stability in Sprague-Dawley rat assessed as urinary excretion of trans-ferulic acid 4-O-sulfate level at 200 mg/kg, po after 0 to 24 hrs by HPLC; format: ADME, organism-based, Urine; conditions: in vivo
[6] = system: Rattus norvegicus; assay: Metabolic stability in Sprague-Dawley rat assessed as urinary excretion of trans-m-coumaric acid level at 200 mg/kg, po after 0 to 8 hrs by HPLC; format: ADME, organism-based, Urine; conditions: in vivo
[7] = system: Rattus norvegicus; assay: Metabolic stability in Sprague-Dawley rat assessed as urinary excretion of trans-caffeic acid 4-O-sulfate level at 200 mg/kg, po after 0 to 36 hrs by HPLC; format: ADME, organism-based, Urine; conditions: in vivo
[8] = system: Rattus norvegicus; assay: Metabolic stability in Sprague-Dawley rat assessed as urinary excretion of total metabolites at 200 mg/kg, po after 0 to 4 hrs by HPLC; format: ADME, organism-based, Urine; conditions: in vivo
[9] = system: Rattus norvegicus; assay: Metabolic stability in Sprague-Dawley rat assessed as urinary excretion of trans-caffeic acid level at 200 mg/kg, po after 0 to 12 hrs by HPLC; format: ADME, organism-based, Urine; conditions: in vivo
[10] = system: Rattus norvegicus; assay: Metabolic stability in Sprague-Dawley rat assessed as urinary excretion of trans-m-coumaric acid 3-O-sulfate level at 200 mg/kg, po after 0 to 24 hrs by HPLC; format: ADME, organism-based, Urine; conditions: in vivo
[11] = system: Rattus norvegicus; assay: Metabolic stability in Sprague-Dawley rat assessed as urinary excretion of total metabolites at 200 mg/kg, po after 0 to 8 hrs by HPLC; format: ADME, organism-based, Urine; conditions: in vivo
[12] = system: Rattus norvegicus; assay: Metabolic stability in Sprague-Dawley rat assessed as urinary excretion of trans-caffeic acid 4-O-sulfate level at 200 mg/kg, po after 0 to 72 hrs by HPLC; format: ADME, organism-based, Urine; conditions: in vivo
[13] = system: Rattus norvegicus; assay: Metabolic stability in Sprague-Dawley rat assessed as urinary excretion of total metabolites at 200 mg/kg, po after 0 to 72 hrs by HPLC; format: ADME, organism-based, Urine; conditions: in vivo
[14] = Metabolic stability in Sprague-Dawley rat assessed as urinary excretion of unchanged drug level at 200 mg/kg, po after 0 to 12 hrs by HPLC; format: ADME, organism-based; conditions: urine, read-out: Activity
[15] = system: Rattus norvegicus; assay: Metabolic stability in Sprague-Dawley rat assessed as urinary excretion of trans-ferulic acid 4-O-sulfate level at 200 mg/kg, po after 0 to 36 hrs by HPLC; format: ADME, organism-based, Urine; conditions: in vivo
[16] = system: Rattus norvegicus; assay: Metabolic stability in Sprague-Dawley rat assessed as urinary excretion of trans-caffeic acid level at 200 mg/kg, po after 0 to 24 hrs by HPLC; format: ADME, organism-based, Urine; conditions: in vivo
[17] = system: Rattus norvegicus; assay: Metabolic stability in Sprague-Dawley rat assessed as urinary excretion of total metabolites at 200 mg/kg, po after 0 to 48 hrs by HPLC; format: ADME, organism-based, Urine; conditions: in vivo
[18] = Metabolic stability in Sprague-Dawley rat assessed as urinary excretion of unchanged drug level at 200 mg/kg, po after 0 to 24 hrs by HPLC; format: ADME, organism-based; conditions: urine, read-out: Activity
[19] = system: Rattus norvegicus; assay: Metabolic stability in Sprague-Dawley rat assessed as urinary excretion of trans-caffeic acid 4-O-sulfate level at 200 mg/kg, po after 0 to 8 hrs by HPLC; format: ADME, organism-based, Urine; conditions: in vivo
[20] = Metabolic stability in Sprague-Dawley rat assessed as urinary excretion of unchanged drug level at 200 mg/kg, po after 0 to 72 hrs by HPLC; format: ADME, organism-based; conditions: urine, read-out: Activity
[21] = system: Rattus norvegicus; assay: Metabolic stability in Sprague-Dawley rat assessed as urinary excretion of trans-m-coumaric acid level at 200 mg/kg, po after 0 to 72 hrs by HPLC; format: ADME, organism-based, Urine; conditions: in vivo
[22] = system: Rattus norvegicus; assay: Metabolic stability in Sprague-Dawley rat assessed as urinary excretion of trans-m-coumaric acid 3-O-sulfate level at 200 mg/kg, po after 0 to 12 hrs by HPLC; format: ADME, organism-based, Urine; conditions: in vivo
[23] = system: Rattus norvegicus; assay: Metabolic stability in Sprague-Dawley rat assessed as urinary excretion of trans-caffeic acid 4-O-sulfate level at 200 mg/kg, po after 0 to 12 hrs by HPLC; format: ADME, organism-based, Urine; conditions: in vivo
[24] = system: Rattus norvegicus; assay: Metabolic stability in Sprague-Dawley rat assessed as urinary excretion of trans-ferulic acid 4-O-sulfate level at 200 mg/kg, po after 0 to 4 hrs by HPLC; format: ADME, organism-based, Urine; conditions: in vivo
[25] = system: Rattus norvegicus; assay: Metabolic stability in Sprague-Dawley rat assessed as urinary excretion of trans-m-coumaric acid 3-O-sulfate level at 200 mg/kg, po after 0 to 36 hrs by HPLC; format: ADME, organism-based, Urine; conditions: in vivo
[26] = system: Rattus norvegicus; assay: Metabolic stability in Sprague-Dawley rat assessed as urinary excretion of trans-m-coumaric acid level at 200 mg/kg, po after 0 to 36 hrs by HPLC; format: ADME, organism-based, Urine; conditions: in vivo

Activity [1]: 0.413%
Activity [2]: 23.143%
Activity [3]: 12.137%
Activity [4]: 18.357%
Activity [5]: 0.538%
Activity [6]: 0.015%
Activity [7]: 0.154%
Activity [8]: 0.17%
Activity [9]: 0.037%
Activity [10]: 7.456%
Activity [11]: 1.476%
Activity [12]: 0.154%
Activity [13]: 31.836%
dose excreted [14]: 0.077%
Activity [15]: 0.559%
Activity [16]: 0.063%
Activity [17]: 31.836%
dose excreted [18]: 0.077%
Activity [19]: 0.124%
dose excreted [20]: 0.077%
Activity [21]: 0.413%
Activity [22]: 0.174%
Activity [23]: 0.139%
Activity [24]: 0.081%
Activity [25]: 11.778%
Activity [26]: 0.399%
SMILES: O=C(/C=C/c1ccc(O)c(O)c1)O[C@H](Cc1ccc(O)c(O)c1)C(=O)O [ROSMARINIC ACID]
